Converted amounts (≈) assume the structure as drawn.
What was measured:
[1] = tested on: Staphylococcus aureus ATCC 6538; experiment: MIC assay on Staphylococcus aureus ATCC 6538; type: cell-based; details: Staphylococcus aureus, ATCC6538; TSB, 37° C., 24 h aerobically; dilutions 29 to 10000 ppm; read-out: MIC (ppm) S. aureus
Method: MIC assay for Staphylococcus aureus ATCC 6538 is based on Clinical Laboratory Standard Institute: CLSI/NCCLS M07-A8. Cell suspension of working cultures of S. aureus was prepared following the instructions of culture provider ATCC, USA.
(§1) A total of 26 perfumery materials were examined for an inhibition effect on Malassezia furfur and Staphylococcus aureus.

[2] = tested on: Malassezia furfur DSM 6170; experiment: MIC assay on Malassezia furfur DSM 6170 (resazurin); type: cell-based; details: Malassezia furfur, DSM6170; 30° C., 48 h aerobically; dilutions 29 to 10000 ppm
Method: The MIC assay for Malassezia furfur DSM 6170 was modified based on the method in Journal of Clinical Microbiology 2017, Vol 55: 1883-1893. In brief, working culture was prepared from stock cultures stored at −80° C. to obtain a cell suspension as the inoculum. Serial dilutions of samples, 29 to 10000 ppm, were tested to determine the MIC values for growth of Malassezia furfur DSM 6170 after at 30° C. for 48 h aerobically. Resazurin was used as growth indicator.
as §1

[3] = tested on: M. restricta ATCC MYA-4611; experiment: Disc-diffusion assay, perfumery materials in DMSO, M. restricta; type: cell-based, Malassezia restricta; details: Malassezia restricta, 144 h
Method: (§2) Anti-Malassezia effect of perfumery materials in solvent in DMSO was determined using disc-diffusion assay, based on the method of J Mycol Infect 2018: 23: 91-98. In brief, working cultures of Malassezia strains were prepared from −80 C stock culture on mDixon agar plate (for M. furfur DSM 6170) or mLN agar plate (for M. restricta ATCC MYA-4611 and M. globosa ATCC MYA-4612), and cells were suspended in 0.9% saline, and spread onto mDixon or mLN agar surface to prepare lawn plate. Test samples solutions are prepared in DMSO to final concentrations of 0.2%, 1% or 2%. Discs (Whatman, 6 mm in diameter) were placed on inoculated agar plates with each Malassezia strains respectively, including M. furfur DSM 6170, M. restricta ATCC MYA-4611, and M. globosa ATCC MYA-4612. Aliquots (20 μL) of each sample solution was added to each disc. Agar plates were incubated at 30° C. for 3 days for M. furfur DSM 6170, and 6 days for M. restricta ATCC MYA-4611, and M. globosa ATCC MYA-4612. After incubation, diameters of the clear inhibition zones around the discs were measured. Inhibition zone greater than 6 mm are regarded as having anti-Malassezia effect.

M. restricta [4] = experiment: Disc-diffusion assay, additional perfumery materials in DMSO, M. restricta, 4 days; type: cell-based, Malassezia restricta; details: Malassezia restricta, 96 h, 4 days; for zone of inhibition at 0.5 %: Table 20, 0.5% in DMSO, read-out: Inhibition zone diameter (mm) on M. restricta; for zone of inhibition: Table 19, in DMSO (1% or 2%, not specified per value), M. restricta, read-out: Inhibition zone diameter (mm)
Method: Anti-Malassezia effect of additional perfumery materials in DMSO was determined using disc-diffusion assay as described previously. Test samples solutions were prepared in DMSO to final concentrations of 0.5%, 1% or 2%. Discs (Whatman, 6 mm in diameter) were placed on inoculated agar plates. Aliquots (20 μL) of each sample solution was added to each disc. Agar plates were incubated at 30° C. for 4 days. After incubation, diameters of the clear inhibition zones around the discs were recorded
Anti-Malassezia effect of additional perfumery materials in DMSO was determined using disc-diffusion assay as described above. Test samples solutions were prepared in DMSO to final concentrations of 0.5%, 1% or 2%. Discs (Whatman, 6 mm in diameter) were placed on inoculated agar plates. Aliquots (20 μL) of each sample solution was added to each disc. Agar plates were incubated at 30° C. for 4 days. After incubation, diameters of the clear inhibition zones around the discs were recorded.
Anti-Malassezia effect of additional perfumery materials in solvent in DMSO was determined using disc-diffusion assay, as described previously. Test samples solutions are prepared in DMSO to final concentrations of 0.5%. Discs (Whatman, 6 mm in diameter) were placed on inoculated agar plates. Aliquots (20 μL) of each sample solution was added to each disc. Agar plates were incubated at 30° C. for 4 days. After incubation, diameters of the clear inhibition zones around the discs were measured.

M. globosa ATCC MYA-4612 = experiment: Disc-diffusion assay, perfumery materials in DMSO, M. globosa; type: cell-based, Malassezia globosa; details: Malassezia globosa, 144 h
Method: as §2

M. restricta [5] = experiment: Disc-diffusion assay, combinations with piroctone olamine (PO) in DMSO, M. restricta; type: cell-based, Malassezia restricta; details: 4 days, ratio greater than 1.0 = boosting effect
Method: Anti-Malassezia effect of combinations of PO and perfumery materials in solvent DMSO against M. restricta was determined using disc-diffusion assay as described above. Aliquots (20 μL) of each sample solution was added to each disc. Agar plates were incubated at 30° C. for 4 days. After incubation, diameters of the clear inhibition zones around the discs were measured. Ratio of inhibition zone diameter of each combination to that of PO only were calculated. […] Anti-Malassezia effect of combinations of PO and perfumery raw materials mixtures in solvent DMSO was determined using disc-diffusion assay, as described above. Aliquots (20 μL) of each sample solution was added to each disc. Agar plates were incubated at 30° C. for 4 days. After incubation, diameters of the clear inhibition zones around the discs were measured. Ratio of inhibition zone diameter of each combination to that of PO only were calculated.

M. furfur DSM 6170 = experiment: Disc-diffusion assay, perfumery materials in DMSO, M. furfur; type: cell-based, Malassezia furfur; details: Malassezia furfur, DSM6170, 72 h
Method: as §2

## CC(C)c1cccc(C(C)CC=O)c1 (racemic) [floral butanal, (+/−)-3-(3-isopropylphenyl)butanal]
[1]
  MIC: 387 µg/mL (≈ 2030 µM)
[2]
  MIC: 1300 µg/mL (≈ 6830 µM)
[3]
  zone of inhibition at 1 %: 8.2 mm
M. restricta [4]
  zone of inhibition at 0.5 %: 7.5 mm

## CC(C=O)Cc1ccc(C(C)(C)C)cc1 (racemic) [lilial, (+/−)-2-methyl-3-[4-(2-methyl-2-propanyl)phenyl]propanal]
[1]
  MIC: 325 µg/mL (≈ 1590 µM)
M. globosa ATCC MYA-4612
  zone of inhibition at 1 %: 7.4 mm

## CC(C)(C)c1ccc(CCC=O)cc1 [cyclamen propanal, 3-(4-tert-butylphenyl)propanal]
[3]
  zone of inhibition at 0.2 %: 6.6 mm
  zone of inhibition at 2 %: 12.3 mm
M. globosa ATCC MYA-4612
  zone of inhibition at 0.2 %: 6.3 mm
  zone of inhibition at 2 %: 7.9 mm

## c1ccc2[nH]ccc2c1 [indole]
[1]
  MIC: 693 µg/mL (≈ 5920 µM)
[2]
  MIC: 259 µg/mL (≈ 2210 µM)
M. globosa ATCC MYA-4612
  zone of inhibition at 0.2 %: 6.3 mm
  zone of inhibition at 1 %: 15.2 mm

## CCCCCCO [Mix 1-hexanol, 1-hexanol]
[3]
  zone of inhibition at 1 %: 6.7 mm

## CCCCCCCCCC(=O)O [decanoic acid]
M. restricta [5]
  Ratio of inhibition zone diameter (1% PRM + 0.35% PO) to 0.35% PO: 1.1

## CCCCCCC#CC(=O)OC [methyl octine carbonate, methyl 2-nonynoate]
[3]
  zone of inhibition at 0.2 %: 6.4 mm
  zone of inhibition at 1 %: 6.7 mm
M. globosa ATCC MYA-4612
  zone of inhibition at 1 %: 10.3 mm

## CC(C)C1CCC(CO)CC1 (stereo not drawn) [p-menthan-7-ol]
[1]
  MIC: 625 µg/mL (≈ 4000 µM)
[2]
  MIC: 222 µg/mL (≈ 1420 µM)
M. furfur DSM 6170
  zone of inhibition at 2 %: 6.3 mm
[3]
  zone of inhibition at 0.2 %: 6.7 mm
M. globosa ATCC MYA-4612
  zone of inhibition at 0.2 %: 6.5 mm

## CCOC(=O)C(C)CC (racemic) [ethyl 2-methyl butanoate, (+/−)-ethyl 2-methylbutanoate]
M. globosa ATCC MYA-4612
  zone of inhibition at 1 %: 6.6 mm

## COc1ccc(CC(C)C=O)cc1 (racemic) [para-anisyl propanal, (+/−)-3-(4-methoxyphenyl)-2-methylpropanal]
[1]
  MIC: 530 µg/mL (≈ 2970 µM)
[2]
  MIC: 222 µg/mL (≈ 1250 µM)
[3]
  zone of inhibition at 0.2 %: 6.6 mm
  zone of inhibition at 1 %: 14.3 mm
M. globosa ATCC MYA-4612
  zone of inhibition at 1 %: 11.6 mm
M. restricta [5]
  Ratio of inhibition zone diameter (0.5% PRM + 0.1% PO) to 0.1% PO: 2.0
  Ratio of inhibition zone diameter (1% PRM + 0.35% PO) to 0.35% PO: 1.5

## CCCCCCCCCCO [Mix 1-decanol, 1-decanol]
[1]
  MIC: 370 µg/mL (≈ 2340 µM)
[2]
  MIC: 500 µg/mL (≈ 3160 µM)
[3]
  zone of inhibition at 0.2 %: 8.5 mm
  zone of inhibition at 1 %: 10 mm
  zone of inhibition at 2 %: 25 mm
M. globosa ATCC MYA-4612
  zone of inhibition at 0.2 %: 6.7 mm
  zone of inhibition at 1 %: 15.9 mm
  zone of inhibition at 2 %: 16.4 mm

## COc1ccc(C=O)cc1 [para-anisaldehyde, 4-methoxybenzaldehyde]
[2]
  MIC: 500 µg/mL (≈ 3670 µM)
[3]
  zone of inhibition at 2 %: 13.4 mm

## CCCCCCCCCCCCO [Mix 1-dodecanol, 1-dodecanol]
[1]
  MIC: 22 µg/mL (≈ 118 µM)
[3]
  zone of inhibition at 0.2 %: 6.8 mm
  zone of inhibition at 1 %: 11.5 mm
M. globosa ATCC MYA-4612
  zone of inhibition at 0.2 %: 8.7 mm
  zone of inhibition at 1 %: 10.2 mm

## CCCCCCCCC(=O)O [nonanoic acid]
M. restricta [5]
  Ratio of inhibition zone diameter (0.5% PRM + 0.1% PO) to 0.1% PO: 1.1
  Ratio of inhibition zone diameter (1% PRM + 0.35% PO) to 0.35% PO: 1.2

## C=CCCCCCCCCC=O [Mix 10-undecenal, 10-undecenal]
[3]
  zone of inhibition at 0.2 %: 6.5 mm
  zone of inhibition at 1 %: 12.7 mm
M. globosa ATCC MYA-4612
  zone of inhibition at 0.2 %: 7.1 mm
  zone of inhibition at 1 %: 14.1 mm

## CCCCCCCCC1CCC(=O)O1 (racemic) [gamma-dodecalactone, (+/−)-5-octyldihydro-2(3h)-furanone]
[1]
  MIC: 173 µg/mL (≈ 872 µM)
[2]
  MIC: 148 µg/mL (≈ 746 µM)
M. furfur DSM 6170
  zone of inhibition at 2 %: 6.9 mm
M. globosa ATCC MYA-4612
  zone of inhibition at 0.2 %: 6.3 mm

## CCCCCCC1CCCC(=O)O1 (stereo not drawn) [delta-undecalactone, 6-hexyltetrahydro-2H-pyran-2-one]
[1]
  MIC: 293 µg/mL (≈ 1590 µM)
[2]
  MIC: 333 µg/mL (≈ 1810 µM)
[3]
  zone of inhibition at 0.2 %: 6.1 mm
M. globosa ATCC MYA-4612
  zone of inhibition at 0.2 %: 6.4 mm

## CC(C=O)Cc1ccc(C(C)C)cc1 (racemic) [cyclamen aldehyde, (+/−)-3-(4-isopropylphenyl)-2-methylpropanal]
[1]
  MIC: 933 µg/mL (≈ 4900 µM)
[3]
  zone of inhibition at 1 %: 8.2 mm
M. globosa ATCC MYA-4612
  zone of inhibition at 1 %: 6.7 mm
M. restricta [4]
  zone of inhibition at 0.5 %: 7.5 mm

## Cc1ccc2c(c1)CC(C)(CO)C2 (racemic) [(+/−)-(2,5-dimethyl-2,3-dihydro-1H-inden-2-yl)methanol]
M. restricta [4]
  zone of inhibition at 0.5 %: 7 mm

## CNc1ccccc1C(=O)OC [methyl 2-(methylamino)benzoate]
M. restricta [4]
  zone of inhibition at 0.5 %: 7.4 mm

## CCCC/C=C\CCO [(Z)-3-octen-1-ol]
M. restricta [4]
  zone of inhibition: 7.1 mm

## CCOc1cc(C=O)ccc1O [ethyl vanillin, 3-ethoxy-4-hydroxybenzaldehyde]
[1]
  MIC: 2670 µg/mL (≈ 16000 µM)
[2]
  MIC: 500 µg/mL (≈ 3010 µM)
[3]
  zone of inhibition at 2 %: 19.5 mm

## CCCCCCC/C=C\CCC=O [(4Z)-4-dodecenal]
M. restricta [4]
  zone of inhibition: 7.4 mm

## CCCCCCCC(=O)O [octanoic acid]
M. restricta [5]
  Ratio of inhibition zone diameter (1% PRM + 0.35% PO) to 0.35% PO: 1.1

## CC(C)=CCC[C@@H](C)CC#N [(−)-(R)-3,7-dimethyl-6-octenenitrile]
M. restricta [4]
  zone of inhibition at 0.5 %: 7.2 mm

## CCCCC/C=C\C=C\C(=O)OCC [ethyl (2E,4Z)-2,4-decadienoate]
M. restricta [4]
  zone of inhibition at 0.5 %: 7.4 mm

## CC(C)=CCCC(C)CCOCC=O (racemic) [(+/−)-[(3,7-dimethyl-6-octen-1-yl)oxy]acetaldehyde]
M. restricta [4]
  zone of inhibition at 0.5 %: 9.7 mm

## CC/C=C/CC/C=C/C=O [(E,E)-2,6-nonadienal]
M. restricta [4]
  zone of inhibition: > 40 mm

## CCCCC[C@H]1C(=O)CC[C@@H]1CC(=O)OC (racemic) [methyl dihydrojasmonate, methyl 2-((1 RS,2RS)-3-oxo-2-pentylcyclopentyl)acetate]
[1]
  MIC: 330 µg/mL (≈ 1460 µM)
[2]
  MIC: 222 µg/mL (≈ 981 µM)
[3]
  zone of inhibition at 0.2 %: 6.1 mm

## C/C(C=O)=C\c1ccccc1 [(2E)-2-methyl-3-phenyl-2-propenal]
M. restricta [4]
  zone of inhibition at 0.5 %: 8.1 mm
